Results from article PMC9611727, “Optimization of a Novel Mandelamide-Derived Pyrrolopyrimidine Series of PERK Inhibitors” (Pharmaceutics, 2022).

What was measured:
Test in all cases: scanMAX kinase panel
Type in all cases: binding
Details in all cases: read-out: % Control; for remaining binding at 1 µM: 1000 nM
FLT3(D835H) = molecular target: T1, FLT3(D835H) (Homo sapiens, UniProt P36888, D835H)
T1 construct: purchased DiscoverX scanMAX
T1 sequence (P36888 27-993 D835H): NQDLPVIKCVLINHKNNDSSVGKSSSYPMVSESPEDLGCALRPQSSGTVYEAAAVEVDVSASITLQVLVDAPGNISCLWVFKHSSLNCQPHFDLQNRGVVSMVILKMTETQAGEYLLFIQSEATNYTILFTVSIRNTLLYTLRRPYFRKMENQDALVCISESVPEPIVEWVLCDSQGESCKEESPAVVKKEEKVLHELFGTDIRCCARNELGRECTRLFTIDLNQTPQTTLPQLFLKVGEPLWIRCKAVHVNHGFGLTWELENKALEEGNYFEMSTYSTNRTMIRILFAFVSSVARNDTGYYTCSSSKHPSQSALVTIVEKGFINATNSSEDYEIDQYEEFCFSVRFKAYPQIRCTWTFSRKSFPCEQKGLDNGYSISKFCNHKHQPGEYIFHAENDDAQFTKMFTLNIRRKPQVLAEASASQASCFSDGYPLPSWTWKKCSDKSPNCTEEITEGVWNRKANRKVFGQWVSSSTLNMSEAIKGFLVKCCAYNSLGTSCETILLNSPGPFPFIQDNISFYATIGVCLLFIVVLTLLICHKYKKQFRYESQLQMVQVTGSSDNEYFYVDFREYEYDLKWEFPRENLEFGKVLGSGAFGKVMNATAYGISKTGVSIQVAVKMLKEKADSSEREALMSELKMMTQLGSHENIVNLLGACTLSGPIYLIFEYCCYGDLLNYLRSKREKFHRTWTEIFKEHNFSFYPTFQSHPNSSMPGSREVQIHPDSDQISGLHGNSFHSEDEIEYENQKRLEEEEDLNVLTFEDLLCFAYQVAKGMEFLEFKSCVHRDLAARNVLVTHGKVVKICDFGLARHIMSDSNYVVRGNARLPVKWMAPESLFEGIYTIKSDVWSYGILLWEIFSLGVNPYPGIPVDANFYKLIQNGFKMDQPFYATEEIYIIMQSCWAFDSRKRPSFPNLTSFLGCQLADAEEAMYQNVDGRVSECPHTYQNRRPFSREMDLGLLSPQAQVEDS
Excerpt: (§1) Supplemental Table S2. scanMAXSM Kinome Assay Results. Complete tabulated data of all 468 kinases from the panel, including
(§2) 403 wild-type and 65 mutant isoforms. […] Cmpd 11 and Cmpd 24

LOK = molecular target: T2, LOK (Homo sapiens, UniProt O94804)
T2 construct: purchased DiscoverX scanMAX
T2 sequence (O94804 whole entry): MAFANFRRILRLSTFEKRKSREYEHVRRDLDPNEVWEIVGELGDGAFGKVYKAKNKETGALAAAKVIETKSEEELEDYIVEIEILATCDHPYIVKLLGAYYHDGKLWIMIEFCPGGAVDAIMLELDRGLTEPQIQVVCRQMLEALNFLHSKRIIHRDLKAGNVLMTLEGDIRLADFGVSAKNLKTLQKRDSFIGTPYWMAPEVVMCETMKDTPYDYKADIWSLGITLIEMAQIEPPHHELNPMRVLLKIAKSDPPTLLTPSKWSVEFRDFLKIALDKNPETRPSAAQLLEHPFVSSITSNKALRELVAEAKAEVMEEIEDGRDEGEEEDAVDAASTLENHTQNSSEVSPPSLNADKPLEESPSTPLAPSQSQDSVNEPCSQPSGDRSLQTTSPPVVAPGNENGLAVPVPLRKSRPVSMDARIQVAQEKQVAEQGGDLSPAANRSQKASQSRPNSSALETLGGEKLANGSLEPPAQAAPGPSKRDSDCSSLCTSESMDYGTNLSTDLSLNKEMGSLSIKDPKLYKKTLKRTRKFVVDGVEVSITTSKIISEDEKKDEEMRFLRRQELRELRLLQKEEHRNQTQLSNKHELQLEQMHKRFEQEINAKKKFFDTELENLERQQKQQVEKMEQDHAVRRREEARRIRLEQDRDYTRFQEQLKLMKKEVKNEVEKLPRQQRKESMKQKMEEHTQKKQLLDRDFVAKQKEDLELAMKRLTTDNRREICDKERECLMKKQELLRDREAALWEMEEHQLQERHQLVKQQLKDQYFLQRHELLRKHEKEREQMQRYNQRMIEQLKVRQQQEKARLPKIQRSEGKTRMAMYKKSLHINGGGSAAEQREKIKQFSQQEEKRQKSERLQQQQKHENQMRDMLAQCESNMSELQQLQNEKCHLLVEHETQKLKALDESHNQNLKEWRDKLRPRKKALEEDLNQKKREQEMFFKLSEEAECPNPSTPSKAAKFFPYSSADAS
Excerpt: as §1, §2

RIPK5 = molecular target: T3, RIPK5 (Homo sapiens, UniProt Q6XUX3)
T3 construct: purchased DiscoverX (scanMAX panel)
T3 sequence (Q6XUX3 1-929): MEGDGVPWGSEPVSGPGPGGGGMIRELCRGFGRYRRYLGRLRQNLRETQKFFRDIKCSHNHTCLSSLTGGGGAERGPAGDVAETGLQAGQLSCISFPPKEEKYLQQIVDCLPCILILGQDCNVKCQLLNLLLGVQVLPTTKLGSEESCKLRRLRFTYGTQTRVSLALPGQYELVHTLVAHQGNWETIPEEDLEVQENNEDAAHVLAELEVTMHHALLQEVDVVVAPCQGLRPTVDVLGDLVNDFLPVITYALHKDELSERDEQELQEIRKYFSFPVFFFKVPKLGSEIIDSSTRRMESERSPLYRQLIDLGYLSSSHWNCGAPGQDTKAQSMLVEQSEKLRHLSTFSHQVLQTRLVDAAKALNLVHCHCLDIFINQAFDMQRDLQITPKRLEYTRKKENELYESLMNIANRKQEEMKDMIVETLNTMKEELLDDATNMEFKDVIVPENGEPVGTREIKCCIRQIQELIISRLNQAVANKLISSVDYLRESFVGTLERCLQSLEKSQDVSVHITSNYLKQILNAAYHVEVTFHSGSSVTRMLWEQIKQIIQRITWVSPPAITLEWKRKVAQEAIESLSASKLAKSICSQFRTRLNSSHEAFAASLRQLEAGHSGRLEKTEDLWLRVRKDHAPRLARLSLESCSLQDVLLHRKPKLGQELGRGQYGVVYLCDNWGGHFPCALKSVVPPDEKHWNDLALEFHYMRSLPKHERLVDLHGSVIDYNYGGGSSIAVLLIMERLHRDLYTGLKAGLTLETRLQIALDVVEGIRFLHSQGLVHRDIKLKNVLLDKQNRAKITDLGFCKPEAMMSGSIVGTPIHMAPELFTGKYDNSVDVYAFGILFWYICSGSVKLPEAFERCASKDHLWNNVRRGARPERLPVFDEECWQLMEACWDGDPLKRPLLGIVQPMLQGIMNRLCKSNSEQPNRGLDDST
Excerpt: as §1, §2

PIK3CA(E542K) = molecular target: T4, PIK3CA(E542K) (Homo sapiens, UniProt P42336, E542K)
T4 construct: purchased DiscoverX scanMAX
T4 sequence (P42336 whole entry E542K): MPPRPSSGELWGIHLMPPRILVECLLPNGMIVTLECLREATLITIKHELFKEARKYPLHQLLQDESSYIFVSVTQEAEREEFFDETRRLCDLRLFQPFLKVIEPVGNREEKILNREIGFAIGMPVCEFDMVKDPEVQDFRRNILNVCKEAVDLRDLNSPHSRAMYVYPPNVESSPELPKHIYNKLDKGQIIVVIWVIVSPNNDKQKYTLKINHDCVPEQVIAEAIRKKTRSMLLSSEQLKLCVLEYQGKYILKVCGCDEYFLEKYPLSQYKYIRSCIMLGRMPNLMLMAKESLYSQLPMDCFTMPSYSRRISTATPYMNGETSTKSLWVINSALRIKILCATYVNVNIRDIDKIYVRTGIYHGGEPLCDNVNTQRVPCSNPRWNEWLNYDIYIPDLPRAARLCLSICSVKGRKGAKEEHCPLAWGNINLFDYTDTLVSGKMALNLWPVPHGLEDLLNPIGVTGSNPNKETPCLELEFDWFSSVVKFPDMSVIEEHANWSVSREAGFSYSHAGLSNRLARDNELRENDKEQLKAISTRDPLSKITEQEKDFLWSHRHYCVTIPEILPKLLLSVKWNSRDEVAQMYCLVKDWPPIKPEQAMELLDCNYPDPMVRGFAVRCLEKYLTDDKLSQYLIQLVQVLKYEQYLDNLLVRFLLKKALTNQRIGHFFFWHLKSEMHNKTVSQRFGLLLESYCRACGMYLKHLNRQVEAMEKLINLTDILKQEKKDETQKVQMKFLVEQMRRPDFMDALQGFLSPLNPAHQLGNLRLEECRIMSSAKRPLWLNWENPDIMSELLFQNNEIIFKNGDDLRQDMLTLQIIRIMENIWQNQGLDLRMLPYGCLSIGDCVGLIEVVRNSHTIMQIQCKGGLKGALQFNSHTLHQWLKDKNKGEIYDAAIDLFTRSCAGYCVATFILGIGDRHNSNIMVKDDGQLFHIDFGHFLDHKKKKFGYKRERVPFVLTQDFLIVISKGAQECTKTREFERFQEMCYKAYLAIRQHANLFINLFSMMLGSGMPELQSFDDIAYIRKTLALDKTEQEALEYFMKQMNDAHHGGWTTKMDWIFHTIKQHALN
Excerpt: as §1, §2

CSF1R = molecular target: T5, CSF1R (Homo sapiens, UniProt P07333)
T5 construct: purchased DiscoverX scanMAX
T5 sequence (P07333 20-972): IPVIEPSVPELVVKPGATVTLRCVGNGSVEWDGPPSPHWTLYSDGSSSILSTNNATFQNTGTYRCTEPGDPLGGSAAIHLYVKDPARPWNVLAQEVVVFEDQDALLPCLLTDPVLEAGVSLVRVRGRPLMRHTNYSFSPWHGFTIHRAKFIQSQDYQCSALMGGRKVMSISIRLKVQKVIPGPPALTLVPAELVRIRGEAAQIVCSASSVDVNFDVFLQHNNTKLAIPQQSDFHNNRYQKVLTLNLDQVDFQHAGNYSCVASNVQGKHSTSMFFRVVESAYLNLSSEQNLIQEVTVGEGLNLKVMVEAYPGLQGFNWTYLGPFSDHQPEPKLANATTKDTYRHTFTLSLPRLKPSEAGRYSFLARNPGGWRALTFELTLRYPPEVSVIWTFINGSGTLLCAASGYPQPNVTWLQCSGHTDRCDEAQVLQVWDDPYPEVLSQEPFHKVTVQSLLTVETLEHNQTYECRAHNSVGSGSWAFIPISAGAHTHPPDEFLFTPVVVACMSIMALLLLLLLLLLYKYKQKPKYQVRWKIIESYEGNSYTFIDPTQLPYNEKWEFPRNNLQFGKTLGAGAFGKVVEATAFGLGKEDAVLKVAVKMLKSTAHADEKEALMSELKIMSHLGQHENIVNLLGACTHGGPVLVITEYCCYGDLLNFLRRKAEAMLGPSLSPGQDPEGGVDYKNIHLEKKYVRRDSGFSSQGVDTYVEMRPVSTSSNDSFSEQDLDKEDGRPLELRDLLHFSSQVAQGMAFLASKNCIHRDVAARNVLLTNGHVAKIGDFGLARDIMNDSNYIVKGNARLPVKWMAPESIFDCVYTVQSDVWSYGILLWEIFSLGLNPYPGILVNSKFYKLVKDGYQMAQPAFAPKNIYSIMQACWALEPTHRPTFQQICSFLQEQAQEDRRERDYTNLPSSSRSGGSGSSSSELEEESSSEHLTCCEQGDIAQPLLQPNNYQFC
Excerpt: as §1, §2

LTK = molecular target: T6, LTK (Homo sapiens, UniProt P29376)
T6 construct: purchased DiscoverX scanMAX
T6 sequence (P29376 17-864): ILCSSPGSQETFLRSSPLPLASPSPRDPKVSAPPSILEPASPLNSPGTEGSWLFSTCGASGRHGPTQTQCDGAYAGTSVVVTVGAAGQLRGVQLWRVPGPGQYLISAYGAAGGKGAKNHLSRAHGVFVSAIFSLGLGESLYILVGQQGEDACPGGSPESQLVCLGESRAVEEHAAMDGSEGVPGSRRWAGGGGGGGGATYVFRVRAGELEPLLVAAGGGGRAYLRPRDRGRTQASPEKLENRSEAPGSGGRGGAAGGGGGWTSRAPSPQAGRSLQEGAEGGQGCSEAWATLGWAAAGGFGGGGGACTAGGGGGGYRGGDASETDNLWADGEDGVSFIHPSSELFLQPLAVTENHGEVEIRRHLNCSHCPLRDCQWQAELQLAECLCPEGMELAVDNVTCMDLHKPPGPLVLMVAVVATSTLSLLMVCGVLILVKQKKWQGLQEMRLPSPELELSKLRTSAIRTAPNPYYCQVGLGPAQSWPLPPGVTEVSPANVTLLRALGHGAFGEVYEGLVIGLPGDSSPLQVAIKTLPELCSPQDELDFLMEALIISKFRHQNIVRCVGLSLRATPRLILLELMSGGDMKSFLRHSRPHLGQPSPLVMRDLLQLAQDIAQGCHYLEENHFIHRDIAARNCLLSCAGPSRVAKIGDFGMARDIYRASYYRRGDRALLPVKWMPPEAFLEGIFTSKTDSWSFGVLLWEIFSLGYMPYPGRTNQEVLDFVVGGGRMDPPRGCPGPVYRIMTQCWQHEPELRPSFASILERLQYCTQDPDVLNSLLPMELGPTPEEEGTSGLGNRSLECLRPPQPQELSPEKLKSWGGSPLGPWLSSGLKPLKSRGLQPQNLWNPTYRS
Excerpt: as §1, §2

TRKA = molecular target: T7, TRKA (Homo sapiens, UniProt P04629)
T7 construct: purchased DiscoverX (scanMAX panel)
T7 sequence (P04629 33-796): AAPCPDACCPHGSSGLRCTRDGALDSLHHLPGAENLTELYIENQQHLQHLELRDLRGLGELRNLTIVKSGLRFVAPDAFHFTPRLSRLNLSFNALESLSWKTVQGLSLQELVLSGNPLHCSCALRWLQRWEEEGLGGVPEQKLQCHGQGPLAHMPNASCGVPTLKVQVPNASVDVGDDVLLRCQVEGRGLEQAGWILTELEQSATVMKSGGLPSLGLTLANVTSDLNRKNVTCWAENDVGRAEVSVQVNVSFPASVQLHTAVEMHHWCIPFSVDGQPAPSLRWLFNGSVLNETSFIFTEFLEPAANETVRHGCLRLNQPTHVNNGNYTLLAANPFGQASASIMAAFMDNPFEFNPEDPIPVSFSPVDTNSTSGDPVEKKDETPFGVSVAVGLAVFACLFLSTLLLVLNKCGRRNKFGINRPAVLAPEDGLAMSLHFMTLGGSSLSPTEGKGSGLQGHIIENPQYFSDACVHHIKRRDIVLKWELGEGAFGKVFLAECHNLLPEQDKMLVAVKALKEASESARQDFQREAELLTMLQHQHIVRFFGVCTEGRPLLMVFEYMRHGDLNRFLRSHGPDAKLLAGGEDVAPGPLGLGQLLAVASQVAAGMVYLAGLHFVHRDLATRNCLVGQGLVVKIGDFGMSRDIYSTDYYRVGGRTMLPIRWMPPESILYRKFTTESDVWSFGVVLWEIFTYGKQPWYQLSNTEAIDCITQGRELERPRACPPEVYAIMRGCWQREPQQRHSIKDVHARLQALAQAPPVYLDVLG
Excerpt: as §1, §2

Cc1nc(N)c2c(-c3ccc(NC(=O)[C@H](O)c4cccc(F)c4)cc3C)cn(C)c2n1 [Compound 24]
remaining binding at 1 µM (FLT3(D835H)): 98% | remaining binding at 1 µM (LOK): 88% | remaining binding at 1 µM (RIPK5): 100% | remaining binding at 1 µM (PIK3CA(E542K)): 0.7% | remaining binding at 1 µM (CSF1R): 94% | remaining binding at 1 µM (LTK): 100% | remaining binding at 1 µM (TRKA): 67%

Cc1cc(NC(=O)[C@H](O)c2cccc(F)c2)ccc1-c1cn(C)c2ncnc(N)c12 [Compound 11, (R)-N-(4-(4-amino-7-methyl-7H-pyrrolo[2,3-d]pyrimidin-5-yl)-3-methylphenyl)-2-(3-fluorophenyl)-2-hydroxy acetamide]
remaining binding at 1 µM (FLT3(D835H)): 33% | remaining binding at 1 µM (LOK): 4% | remaining binding at 1 µM (RIPK5): 3.4% | remaining binding at 1 µM (PIK3CA(E542K)): 89% | remaining binding at 1 µM (CSF1R): 45% | remaining binding at 1 µM (LTK): 35% | remaining binding at 1 µM (TRKA): 12%

Cc1nc(N)c2c(-c3ccc(NC(=O)[C@H](O)c4cccc(C(F)(F)F)c4)cc3C)cn(C)c2n1 [Compound 26]
remaining binding at 0.1 µM (FLT3(D835H); 100 nM): 85% | remaining binding at 1 µM (FLT3(D835H)): 25% | remaining binding at 0.1 µM (LOK; 100 nM): 94% | remaining binding at 1 µM (LOK): 12% | remaining binding at 0.1 µM (RIPK5; 100 nM): 100% | remaining binding at 1 µM (RIPK5): 100% | remaining binding at 0.1 µM (PIK3CA(E542K); 100 nM): 100% | remaining binding at 1 µM (PIK3CA(E542K)): 91% | remaining binding at 0.1 µM (CSF1R; 100 nM): 99% | remaining binding at 1 µM (CSF1R): 15% | remaining binding at 0.1 µM (LTK; 100 nM): 98% | remaining binding at 1 µM (LTK): 22% | remaining binding at 0.1 µM (TRKA; 100 nM): 29% | remaining binding at 1 µM (TRKA): 3.4%
